In series [1] the test system is pilocarpine-induced seizures. In words: Pilocarpine-induced model of temporal lobe seizures. The class given is in vivo, rat. The following applies: pilocarpine 380 mg/kg. The method, then: Pure THCV was injected intra-peritoneally (IP) in the standard vehicle (1:1:18 ethanol:Cremophor:0.9% w/v NaCl) at doses of 0.025, 0.25 and 2.5 mg/kg alongside animals that received vehicle alone at a matched volume (n≧14 for each group). 15 minutes later methylscopolamine (1 mg/kg; to reduce peripheral muscarinic effects of pilocarpine) was administered followed, 45 minutes later by pilocarpine (380 mg/kg, IP) administration.
Pure CBD was injected intra-peritoneally (IP) in the standard vehicle (1:1:18 ethanol:Cremophor:0.9% w/v NaCl) at doses of 1, 10 and 100 mg/kg alongside animals that received vehicle alone at a matched volume (n≧14 for each group). 15 minutes later methylscopolamine (1 mg/kg; to reduce peripheral muscarinic effects of pilocarpine) was administered followed, 45 minutes later by pilocarpine (380 mg/kg, IP) administration.

Another series relates to PTZ-induced seizures. In words: PTZ (pentylenetetrazole)-induced model of generalised seizures. The class given is in vivo, rat.
Series [2] relates to seizures in institutionalized children. The following applies: 5 institutionalized children not responding to phenobarbital and phenytoin; cited from earlier work.
The subject of series [3] is penicillin-induced seizures. Put plainly: Penicillin-induced model of partial seizures. The series is classed as in vivo, rat. Particulars: for development of the most severe seizures (tonic-clonic seizures without postural control): 150 IU penicillin. On the procedure:
CBD (1, 10 and 100 mg/kg) or CBD vehicle (1:1:18 ethanol:Cremophor: 0.9% w/v NaCl) was administered i.p. to adult male Wistar rats (>250 g). One week prior to this, animals had been surgically implanted with a cannula into the right lateral ventricle under anaesthesia. One hour after CBD administration, 150 IU penicillin was infused into the right lateral ventricle in 1.5 μl saline solution over one minute and seizure behaviour video recorded for two hours.
Following detailed examination of animal responses to penicillin alone (using data obtained from vehicle control groups, a finalised seizure scoring scale for penicillin-induced partial seizures has been derived. The following scoring system which was derived from several existing and published scoring systems for this model, will therefore be used for analysis of drug effects upon such seizures.

These results are taken from patent US9522123B2, “Use of one or a combination of phyto-cannabinoids in the treatment of epilepsy” (GW Pharma Limited, priority 2009, dated 2016).

For `CCCc1cc(O)c2c(c1)OC(C)(C)[C@@H]1CCC(C)=C[C@@H]21` [THCV, tetrahydrocannabivarin], the “percentage of animals showing bilateral forelimb clonus with rearing and falling” value in series [1] (0.25 mg/kg THCV) is listed as “significant increase”. Further, the “percentage of animals showing bilateral forelimb clonus with rearing and falling” value in series [1] (THCV doses other than 0.25 mg/kg (0.025, 2.5 mg/kg)) is recorded as “this effect was not seen at any other dose”. In addition, the “latency to the onset of seizure” value in series [1] (pure THCV 0.025, 0.25, 2.5 mg/kg IP) is recorded as “No significant effect”. For the same molecule, in series [1] (pure THCV 0.025, 0.25, 2.5 mg/kg), the “mean maximum severity of seizure” value is given as “no effect”. Besides, in series [1] (pure THCV any dose), the “percentage mortality vs control” value was “No significant change”, the “percentage of animals showing bilateral forelimb clonus” value is reported as “no significant changes”, the “percentage of animals showing tonic-clonic seizures” value is reported as “no significant changes” and the “percentage of animals showing unilateral forelimb clonus” value is listed as “no significant changes”. The “latency to first manifestation of seizure-like behaviour” value in the series with PTZ-induced seizures (pure THCV 0.025, 0.25, 2.5 mg/kg vs vehicle, 80 mg/kg PTZ) was “increased latency”. The “latency to score of [5]” value with PTZ-induced seizures (pure THCV all doses, 80 mg/kg PTZ, p=0.013 at highest dose) is recorded as “increased latencies, reaching a significant level at the highest dose of THCV”. In addition, the “latency to score of [3]” value in the series with PTZ-induced seizures (pure THCV all doses, 80 mg/kg PTZ, p=0.017 at highest dose) is “increased latencies, reaching a significant level at the highest dose of THCV”. Also, the “delay of seizure onset (latency to first seizure sign)” value with PTZ-induced seizures (pure THCV highest dose 2.5 mg/kg, 80 mg/kg PTZ, p=0.02) is given as “delay of onset was significant”. Further, in the series with PTZ-induced seizures (pure THCV medium dose 0.25 mg/kg vs vehicle, 80 mg/kg PTZ, p=0.03), the “duration of PTZ-induced seizures in animals that survived” value is “significantly shorter”.
For `CCCCCc1cc(O)c2c(c1)OC(C)(C)[C@@H]1CCC(C)=C[C@@H]21` [THC, tetrahydrocanibinol], the seizure outcome in series [2] is “One became entirely free of seizures, one became almost completely free of seizures, and the other three did no worse than before”.
In the case of `C=C(C)[C@@H]1CCC(C)=C[C@H]1c1c(O)cc(CCCCC)cc1O` [CBD, cannabidiol], the “percentage mortality vs control” value in series [1] (10 mg/kg CBD) is listed as “significant increase”. In addition, in series [1] (CBD 1 mg/kg and 100 mg/kg), the “percentage duration of time spent in a tonic-clonic state compared to the total duration of the seizure period” value is recorded as “significantly reduced” and the “percentage of animals exhibiting tonic-clonic seizures” value is listed as “significantly reduced”. The “mean frequency of all other seizure scores” value in series [1] (CBD 1, 10, 100 mg/kg vs control) is given as “no significant differences”. Besides, the mean tonic-clonic frequency result in series [1] (CBD all doses tested (1, 10, 100 mg/kg)) was “significant reduction”. In series [1] (CBD doses >1 mg/kg), the “percentage of animals manifesting with bilateral forelimb clonus with rearing and falling” value is “significantly reduces”; the “percentage of animals showing unilateral forelimb clonus” value is “significant decreases”. Moreover, in series [1] (pure CBD 1, 10, 100 mg/kg IP), the “latency to the onset of seizure” value is “No significant effect”. In addition, in series [1] (pure CBD 1, 10, 100 mg/kg), the “mean maximum severity of seizure” value is recorded as “no effect” and the “percentage of animals exhibiting bilateral forelimb clonus” value was “no significant differences”. Also, the “animals that died (mortality)” value in the series with PTZ-induced seizures (100 mg/kg CBD IP, 60 minutes before 80 mg/kg PTZ, p<0.001 vs vehicle) was found to be 6.7%. For the same molecule, the “frequency with which animals experienced the most severe seizures” value in series [3] (10 mg/kg CBD vs vehicle, p=0.071) is on record as “near-significant effect”. In addition, the “development of the most severe seizures (tonic-clonic seizures without postural control)” value in series [3] (100 mg/kg CBD i.p., p=0.001) is recorded as “completely prevented development”. Besides, the “frequency with which animals experienced the most severe seizures” value in series [3] (100 mg/kg CBD vs vehicle, p=0.006) is recorded as “significant decrease”. Also, in series [3] (100 mg/kg CBD vs vehicle, p=0.012), the “median severity of penicillin-induced seizures” value is “significantly reduced”. Also, in series [3] (100 mg/kg CBD, p=0.057), the “mortality compared to vehicle” value is given as “near-significant effect”. In addition, the “development of the most severe seizures (tonic-clonic seizures without postural control)” value in series [3] (1 and 10 mg/kg CBD i.p., p=0.076 for both) is “Near-significant decreases”. Further, in series [3] (all doses of CBD (1, 10 and 100 mg/kg), p<0.001), the “proportion of animals that remained seizure-free” value is on record as “significantly increased”.
